ChEMBL document CHEMBL1201862, “PubChem BioAssay data set” (2004)
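These data come from cells grown in 96-well plates and exposed to compound for 48 hours at five concentrations. GI50 is the concentration that inhibits growth by half.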 Activity calls are given as the source filed them. Cut-off read from the data, not from the text of the source: active = GI50 up to about 1.1 µM and inactive = higher.

Tests used:
Assay in all cases: growth of human tumour cells (NCI), 48 h
[1] = test system: T47D
[2] = test system: UO-31
[3] = test system: OVCAR-3
[4] = test system: RPMI-8226
[5] = test system: BT-549
[6] = test system: MCF7
[7] = test system: TK-10
[8] = test system: SNB-19
[9] = test system: NCI-H522
[10] = test system: SF-539
[11] = test system: Hs-578T
[12] = test system: HL-60
[13] = test system: M14
[14] = test system: SR
[15] = test system: HOP-62
[16] = test system: NCI-H460
[17] = test system: MDA-N
[18] = test system: LOX IMVI
[19] = test system: CCRF-CEM
[20] = test system: MOLT-4

Compound	GI50 [1]	GI50 [2]	GI50 [3]	GI50 [4]	GI50 [5]	GI50 [6]	GI50 [7]	GI50 [8]	GI50 [9]	GI50 [10]	GI50 [11]	GI50 [12]	GI50 [13]	GI50 [14]	GI50 [15]	GI50 [16]	GI50 [17]	GI50 [18]	GI50 [19]	GI50 [20]
CC(C)N1CCN(c2ccncc2S(=O)(=O)N2CCCCC2)CC1	> 100 µM (inactive)	> 100 µM (inactive)	> 100 µM (inactive)	> 100 µM (inactive)	> 100 µM (inactive)	> 100 µM (inactive)	> 100 µM (inactive)	> 100 µM (inactive)	> 100 µM (inactive)	> 100 µM (inactive)	> 100 µM (inactive)	> 100 µM (inactive)	> 100 µM (inactive)	> 100 µM (inactive)	> 100 µM (inactive)	> 100 µM (inactive)	> 100 µM (inactive)	> 100 µM (inactive)	–	–
O=C(O)C(Cc1ccccc1)Cc1ccccc1	> 100 µM (inactive)	> 100 µM (inactive)	> 100 µM (inactive)	> 100 µM (inactive)	> 100 µM (inactive)	> 100 µM (inactive)	> 100 µM (inactive)	> 100 µM (inactive)	> 100 µM (inactive)	> 100 µM (inactive)	7.48 µM (inactive)	> 100 µM (inactive)	> 100 µM (inactive)	–	> 100 µM (inactive)	> 100 µM (inactive)	> 100 µM (inactive)	> 100 µM (inactive)	> 100 µM (inactive)	> 100 µM (inactive)
CC1/C(=N/O)CC(c2ccccc2)N(N=O)C1c1ccccc1 (stereo not drawn)	> 100 µM (inactive)	> 100 µM (inactive)	> 100 µM (inactive)	> 100 µM (inactive)	> 100 µM (inactive)	> 100 µM (inactive)	> 100 µM (inactive)	> 100 µM (inactive)	> 100 µM (inactive)	> 100 µM (inactive)	> 100 µM (inactive)	> 100 µM (inactive)	> 100 µM (inactive)	–	> 100 µM (inactive)	> 100 µM (inactive)	> 100 µM (inactive)	> 100 µM (inactive)	> 100 µM (inactive)	> 100 µM (inactive)
C=CC(=O)N1C/C(=C\c2ccc([N+](=O)[O-])cc2)C(=O)/C(=C/c2ccc([N+](=O)[O-])cc2)C1	0.419 µM (active)	0.147 µM (active)	0.132 µM (active)	0.0193 µM (active)	0.194 µM (active)	< 0.0243 µM (active)	0.713 µM (active)	1.16 µM (inactive)	–	< 0.019 µM (active)	< 0.0422 µM (active)	> 100 µM (inactive)	0.19 µM (active)	0.289 µM (active)	0.222 µM (active)	0.147 µM (active)	0.169 µM (active)	< 0.0179 µM (active)	0.0565 µM (active)	0.0791 µM (active)
COc1c(C(=O)CC2c3c(cc4oc(C)cc(=O)c4c3OC)OC(=N)C2c2nc3ccccc3[nH]2)c(O)c(OC)c2occc12 (stereo not drawn)	> 100 µM (inactive)	> 100 µM (inactive)	> 100 µM (inactive)	> 100 µM (inactive)	> 100 µM (inactive)	> 100 µM (inactive)	> 100 µM (inactive)	> 100 µM (inactive)	> 100 µM (inactive)	–	> 100 µM (inactive)	> 100 µM (inactive)	> 100 µM (inactive)	–	> 100 µM (inactive)	> 100 µM (inactive)	> 100 µM (inactive)	> 100 µM (inactive)	> 100 µM (inactive)	> 100 µM (inactive)
CC(=O)NCCCCN(CCCNC(C)=O)C(=O)OCc1ccccc1	> 100 µM (inactive)	64.3 µM (inactive)	> 100 µM (inactive)	> 100 µM (inactive)	> 100 µM (inactive)	> 100 µM (inactive)	> 100 µM (inactive)	–	> 100 µM (inactive)	> 100 µM (inactive)	> 100 µM (inactive)	> 100 µM (inactive)	> 100 µM (inactive)	–	> 100 µM (inactive)	> 100 µM (inactive)	> 100 µM (inactive)	> 100 µM (inactive)	> 100 µM (inactive)	> 100 µM (inactive)
CN(Cc1ccccc1)c1cc(=O)n(C)c(=O)[nH]1	> 100 µM (inactive)	> 100 µM (inactive)	> 100 µM (inactive)	> 100 µM (inactive)	> 100 µM (inactive)	> 100 µM (inactive)	> 100 µM (inactive)	> 100 µM (inactive)	> 100 µM (inactive)	> 100 µM (inactive)	> 100 µM (inactive)	> 100 µM (inactive)	> 100 µM (inactive)	–	–	> 100 µM (inactive)	> 100 µM (inactive)	> 100 µM (inactive)	62.2 µM (inactive)	> 100 µM (inactive)
Clc1ccc(C2=C(c3ccccc3)C(c3ccc(Cl)cc3)N3C(=N[C@H]4CCCC[C@@H]43)N2)cc1 (stereo partly drawn)	15.6 µM (inactive)	13.6 µM (inactive)	13.8 µM (inactive)	2.48 µM (inactive)	14.6 µM (inactive)	7.06 µM (inactive)	10.5 µM (inactive)	14.5 µM (inactive)	–	15.3 µM (inactive)	19.4 µM (inactive)	3.19 µM (inactive)	12.4 µM (inactive)	2.09 µM (inactive)	–	2.99 µM (inactive)	14.7 µM (inactive)	11.8 µM (inactive)	3.58 µM (inactive)	4.46 µM (inactive)
CCOC(=O)/C(C(N)=O)=C(O)/C(O)=C/C(=O)c1ccc(Cl)cc1	18.6 µM (inactive)	18.6 µM (inactive)	21.9 µM (inactive)	19.8 µM (inactive)	18 µM (inactive)	23.8 µM (inactive)	8.63 µM (inactive)	33.3 µM (inactive)	16.2 µM (inactive)	–	42.1 µM (inactive)	–	21.2 µM (inactive)	21.7 µM (inactive)	21.9 µM (inactive)	16 µM (inactive)	14.8 µM (inactive)	16.3 µM (inactive)	4.53 µM (inactive)	20.1 µM (inactive)
COc1ccc2nc(-c3ccc(O)cc3)cn2c1	89.9 µM (inactive)	35 µM (inactive)	82 µM (inactive)	32.2 µM (inactive)	> 100 µM (inactive)	36 µM (inactive)	71 µM (inactive)	> 100 µM (inactive)	32 µM (inactive)	54.1 µM (inactive)	73.1 µM (inactive)	–	47.4 µM (inactive)	10 µM (inactive)	50.1 µM (inactive)	27.4 µM (inactive)	23.4 µM (inactive)	59 µM (inactive)	72.1 µM (inactive)	49.1 µM (inactive)
Nc1ccn(C2OC(COC(=O)C34CC5CC(CC(C5)C3)C4)C(O)C2O)c(=O)n1 (stereo not drawn)	> 100 µM (inactive)	> 40.5 µM (inactive)	> 100 µM (inactive)	> 100 µM (inactive)	> 100 µM (inactive)	4.81 µM (inactive)	> 100 µM (inactive)	> 79.8 µM (inactive)	10.7 µM (inactive)	> 100 µM (inactive)	> 100 µM (inactive)	0.622 µM (active)	0.817 µM (active)	–	0.973 µM (active)	0.392 µM (active)	> 100 µM (inactive)	7.01 µM (inactive)	0.101 µM (active)	0.0679 µM (active)
